The subject of one test is BALB/c strain mice. Briefly: Animal test: body weight, food intake and diarrhea index of mice given 5-FU drug. The format is in vivo. Here is the method:
(§1) A number of 5-week-old male BALB/c strain mice are selected and randomly divided into groups. The experimental period is 18 days. The temperature of rearing environment of the mice in each group is maintained at 22±2° C., with a day and night cycle of 12 hours each.
Body weight and feed intake of the mice in each group are measured and recorded every day during the testing period. The results are shown in FIG. 2 and FIG. 3; after administration of 5-FU drug, the feces of the mice in each group are collected, and the diarrhea index of the mice in each group is evaluated, the results are shown in FIG. 4.

A further test deals with IL-6. Briefly: Concentration of IL-6 in the serum of the mice (commercial kit). The format is in vivo. The conditions noted are these: same regimen, after the test period; FIG. 5. As for the experimental part:
A number of 5-week-old male BALB/c strain mice are selected and randomly divided into groups. The experimental period is 18 days. The temperature of rearing environment of the mice in each group is maintained at 22±2° C., with a day and night cycle of 12 hours each. […] After the test period in embodiment 4, the serum of the mice in each group is collected respectively, and the concentration of IL-6 in the serum of the mice in each group is analyzed with a commercial kit.

In test [1] the test system is large intestine and small intestine tissues. Briefly: Length of large intestine and hematoxylin-eosin staining of small and large intestine tissues of the mice. The conditions noted are these: same regimen. The format is in vivo. As for the experimental part: A number of 5-week-old male BALB/c strain mice are selected and randomly divided into groups. The experimental period is 18 days. The temperature of rearing environment of the mice in each group is maintained at 22±2° C., with a day and night cycle of 12 hours each. […] After the test period in embodiment 4, large intestine and small intestine tissues of the mice in each group are collected, and a length of the large intestine of the mice in each group is measured respectively, the results are shown in FIG. 6; the large intestine and small intestine of the mice in each group are sliced respectively, and stained with hematoxylin-eosin, the results are shown in FIGS. 7A and 7B.

Another test concerns intestinal microflora. In words: Microflora analysis of feces of the mice (OTU clustering, heatmap, PLS-DA, metagenomeSeq). The format is in vivo. Here is the method: as §1
After the test in embodiment 4, the feces of the mice in each group are collected, and sequence analysis of the feces of the mice in each group is outsourced, and then similarity (greater than 97%) OTUs (Operational Taxonomic Units) clustering and species classification analysis are performed. According to the species annotation results, the top 10 species with relative abundance in the mice in each group in the phylum are selected. Wherein fecal sequencing analysis and microflora analysis are known to a person having ordinary skill in the art to which the invention pertains; generally speaking, the fecal samples are firstly performed with DNA extraction and purification, followed by PCR amplification, purification and sequencing, the sequencing results will go through steps of paired sequence splicing (Raw Tags) and filtering to obtain identifiable valid data, and then OTUs clustering and species classification analysis are performed.
According to the species annotation information and abundance information of all the groups in each taxonomic rank, the top 35 genera in abundance are selected, and the group abundance is the average abundance of all the samples in the group. Clustering is performed at the species level to draw a species heatmap of the fecal samples in each group, the results are shown in FIG. 9.
Partial least square discriminant analysis (PLS-DA) is used to analyze the β-diversity of microbial flora in the feces of the mice in each group to determine whether there is a difference in bacterial flora among the microflora of the mice in each group. The microflora data of the mice in each group are analyzed by metagenomeSeq to evaluate specific differences between the microflora of the mice in each group, and the results are shown in FIG. 11A to FIG. 11D.

Test [2] has as its system chemotherapy-induced diarrhea. The conditions noted are these: literature, cited from earlier work.

Turning to `NC(=O)CC[C@H](N)C(=O)O` [glutamine, L-glutamine], in the test on BALB/c strain mice (5-FU 50 mg/kg/day i.p. days 11-13, BC198 5×10^8/day and/or glutamine 1 g/kg/day oral daily, 18 days, FIG. 2), the body weight result was “able to maintain their body weight”. Further, the food intake entry in the test on BALB/c strain mice (same regimen, FIG. 3, group 5 statement for days 14-15) was “able to maintain their body weight and food intake”. In the test with BALB/c strain mice (same regimen, FIG. 4, compared with 5-FU only (group 2), days 14-15), the diarrhea index entry is on record as “able to alleviate the diarrhea caused by 5-FU drug”. The “concentration of IL-6 in the serum” value in the test with IL-6 is “significantly lower than that of the mice in group 2”. Further, in test [1] (after the test period, FIG. 6), the “length of large intestine” value is reported as “maintain their large intestine lengths”. In addition, in test [1] (FIGS. 7A and 7B, compared with 5-FU only (group 2)), the “structure of small and large intestine tissues (hematoxylin-eosin)” value was “able to mitigate lesion to the structures of the small and large intestines induced by 5-FU drug”. For the same compound, in the test on intestinal microflora (FIG. 8, compared with 5-FU only (group 2)), the “relative abundance of Proteobacteria in feces” value was “can be reduced”. Also, in the test on intestinal microflora (FIG. 9 heatmap, compared with group 2), the “abundances of the microflora associated with diarrhea and enteritis (Escherichia shigella, Odoribacter)” value is “lower than that of the mice in group 2”. Moreover, the “microflora distribution (PLS-DA, β-diversity)” value in the test with intestinal microflora (FIG. 10, relative to group 2) is recorded as “close to that of the mice in group 2”. For the same compound, the “relative abundance of UBA1819” value in the test on intestinal microflora (metagenomeSeq, FIG. 11A, compared with group 2) is reported as “can not be significantly reduced”. For the same compound, in the test on intestinal microflora (metagenomeSeq, FIG. 11B, compared with group 2), the “relative abundance of Staphylococcus” value is recorded as “can not be significantly reduced”. Further, the “relative abundance of Escherichia shigella” value with intestinal microflora (metagenomeSeq, FIG. 11C, compared with group 2) is given as “can be significantly reduced”. Moreover, in the test on intestinal microflora (metagenomeSeq, FIG. 11D, compared with group 2 (5-FU only)), the “relative abundance of Muribaculum” value is “significantly reduced”. In test [2], the doxifluridine-induced diarrhea entry is listed as “incapable of inhibiting”; the “severity of 5-FU/calciumfolinate-induced stomatitis, nausea and diarrhea” value was “incapable of mitigating severity”. Further, in test [2] (patients), the “duration of chemotherapy-induced diarrhea” value is on record as “capable of reducing the duration” and the “severity of chemotherapy-induced diarrhea” value is “incapable of improving its severity”.
